Source: patent US20200088732A1, “METHODS FOR THE DIAGNOSIS AND TREATMENT OF PANCREATIC DUCTAL ADENOCARCINOMA” (INSERM (Institut National de la Santé et de la Recherche …, priority 2017, published 2020)

Columns and labels:
Assay type in all cases: cell-based
Pk4A cells = experiment: Ex vivo peri-neural invasion assay (mouse sciatic nerve co-cultured with cancer cells)
Method: The day before the experiment 125,000 PK4A cells are seeded in 24 well plates in DMEM supplemented with 10% FBS and 1% antibiotic/antimycotic. 24 hrs after inhibitors (AG490 at 30 μmol/L or SC144 at 2 μmol/L) were added for 2 h. […] A mouse sciatic nerve section (5 mm) is placed in every well and cultured for 48 hrs then nerve sections are fixed 24 hrs in 4% formaldehyde and embedded in paraffin for immunohistochemistry study. Nerve sections from each condition are cut to make 4 μm sections from 2 different depths spaced by 50 μm and fixed on slides. Slides are processed for cytokeratin immunostaining by IHC as mentioned above. Cells stained with cytokeratine inside or in contact with nerve are recorded (Image J software).
Using human PDA slides, we observed that PAP/REG3A staining is associated with nerve density (Data not shown). Indeed, nerve fibers are mainly present in tissues areas where PAP/REG3A is strongly expressed. […] To further deepen the suspected role of PAP/REG3A as favoring PNI, we designed a specific ex-vivo experiment. Such experiment was done using mouse sciatic nerve fibers that we incubated with Pk4A cells+/−PAP/REG3β mouse recombinant protein (Data not shown). […]

[1] = system: Mouse pancreatic cancer cell, Pk4A; experiment: Cell migration assay (Boyden chambers), Pk4A cells; conditions: versus ACm/PAP+ media, AG490 30 μM, 1 hr 45 min, P<0.05, FIG. 2E
Method: (§1) Cancer cell migration was studied using PKA4 and PANC-1 cell lines under different media (medium with or without recombinant PAP/REG3A or conditioned medium from acinar cells) on Boyden chambers. Culture inserts from BD Biosciences (353097, Le pont le Claix, FR), with a porous membrane of […], were coated with a mix made of gelatin 0.1% from Sigma-Aldrich (G1890, St Quentin, FR) and fibronectin 10 μg/mL from Sigma-Aldrich (F0895, St Quentin, FR) then seeded with PK4A or PANC-1 cells (100 0000 or 75 000 cells respectively per insert) and placed into wells containing culture media (with or without recombinant PAP/REG3A). PAP/REG3A or […] were used from 0 to 500 ng/mL. Migration was performed for 4 hrs for medium with or without recombinant PAP/REG3A or β and for 1 hr 45 min for conditioned medium from acinar cells. After cleaning and briefly staining inserts with coomassie blue, migration was assessed by counting (Image J software) the number of colored cells in 8-16 high-power fields (magnification ×10).

[2] = system: Human pancreatic cancer cell, Panc-1; experiment: Cell migration assay (Boyden chambers), Panc-1 cells; conditions: 100 ng/mL PAP/REG3A recombinant protein, AG490 at 30 μM, P<0.05, FIG. 2C
Method: as §1

[3] = system: Mouse pancreatic cancer cell, Pk4A; experiment: Cell invasion assay (matrigel Boyden chambers), PK4A cells; conditions: PAP/REG3β 500 ng/mL, AG490 30 μmol/L, 24 hrs, P<0.05, FIG. 2D
Method: Cancer cell invasion was studied using PKA4 cells on Boyden chambers according to manufacturer's protocol (354480, Corning Lifesciences, Corning, N.Y., USA). Mouse recombinant PAP/REG3β was used at 500 ng/mL and AG490 at 30 μmol/L. Culture inserts were pre-coated with matrigel matrix then seeded with PK4A (100 0000 cells per insert) and placed into wells containing the medium. Cell counting was measured after 24 hrs of incubation. After cleaning and briefly staining inserts with coomassie blue, invasion was assessed by counting (Image J software) the number of colored cells in 8-16 high-power fields (magnification ×10).

Row | Structure (SMILES) | PNI relative to acinar cell media containing PAP/REG3β (ACm/PAP+) (Pk4A cells; Pk4A with nerve fibers and acinar cell media, SC144 2 μmol/L, P<0.05, FIG. 3B) | change of the ACm/PAP+-induced increase of Pk4A migration [1] | effect of inhibitor on PAP/REG3A-induced Panc-1 migration [2] | effect of inhibitor on PAP/REG3β-induced invasion [3] | effect of inhibitor on PAP/REG3β-induced nerve fibers invasion by pancreatic cancer cells (Pk4A cells; PAP/REG3β 500 ng/mL, AG490 30 μmol/L, FIG. 3A)
1 | O=C(NNc1nc2cc(F)ccc2n2cccc12)c1cnccn1 [SC144] | drastically reduced |  |  |  | 
2 | N#C/C(=C\c1ccc(O)c(O)c1)C(=O)NCc1ccccc1 [AG490] |  | significantly reduced | impair PAP/REG3A effect on Panc-1 migration | inhibited | impairs significantly
